US20250387410A1, “TREATMENT OF ANTI-VEGF REFRACTORY OPHTHALMIC RETINAL EYE CONDITIONS” (Eye Co Pty Ltd., priority 2022, published 2025)
“Also recorded” adds a separate entry of the source.

Columns and labels:
[1] = tested on: Il-1b-stimulated MIO-M1 cells; test: Co-incubation with selective receptor antagonists in Il-1b-stimulated MIO-M1 cells; format: cell-based, human; details: co-incubation with FA + IL-1β, compared to Il1b and FA alone
Experimental: FIG. 3 Contribution of glucocorticoid and mineralocorticoid receptor signalling to the anti-inflammatory effect of FA in vitro.
IL-1β and TNF-α were administered to MIO-M1 cells to initiate an inflammatory response in order to test the anti-inflammatory properties of the selected corticosteroids. MIO-M1 cells were grown to a cell density of 50,000 cells per well in a 24 well plate using growth media and foetal bovine serum as described (Section 2.1.1). MIO-M1 cells were challenged with either 1 ng/μl of IL-1β or TNF-α (R&D Systems, MN, USA). Experimental wells were treated with either 1 μg/μl FA, TA or Dexamethasone. Twelve hours post addition, growth medium was removed from each well and replaced with 860 μl of TRIzol (Thermo Fisher Scientific, MA, USA), agitated approximately 20 times and then placed in a clean 1.5 ml Eppendorf tube to extract ribonucleic acid (RNA).
Following purification of RNA, cDNA was synthesized using the Bioline Tetro kit (Bioline, Australia) as per the manufacturer's instructions. Quantitative Real Time Polymerase Chain Reaction (QRT-PCR) was undertaken to profile gene expression changes in animal and cell culture samples. TaqMan hydrolysis probes (Applied Biosystems, USA) and Gene Expression Master Mix (Applied Biosystems, USA) were used. A clear 384 well plate (Applied Biosystems, USA) was used with each biological sample plated in duplicate. A reaction mixture per sample was set up and included 0.5 μl cDNA, 4 μl Rnase Free Water, 5 μl Gene Expression Master Mix and 0.5 μl Taqman Primer Probe (Thermo Fisher Scientific), as listed in Table 2.5. The amplification of each sample was undertaken using a QuantStudio 12K Flex QRT-PCR machine (Applied Biosystems, USA). GAPDH was used as the reference gene using the comparative cycle threshold (Ct) method (ΔΔCt), as it is known not to change expression following retinal photo-oxidative damage. Data was analysed using the QuantStudio 12K Flex Software (Applied Biosystems, USA).

[2] = tested on: ARPE19 cells; test: MTT assay, cell viability of ARPE19 cells; format: cell-based, human
Description: (§1) The immortalised retinal cells used were as follows: MIO-M1 cells (Muller cell-derived; Müller 1 Moorefields, Institute of Ophthalmology, Dr A. Limb, Institute of Ophthalmology, University College, UK); ARPE19 (RPE-derived; ATCC CRL-2302, American Tissue Culture Collection, VA, USA); and 661W cells (photoreceptor-like derived; kindly gifted by Dr Muayyad R. Al-Ubaidi, Department of Cell Biology, University of Oklahoma Health Sciences Centre, Oklahoma City, OK, USA). Cells were authenticated and validated from Cell Bank Australia.
(§2) The immortalised retinal cell lines MIO-M1, 661W and ARPE19 were used to undertake the MTT assay to assess cell metabolic activity, based on the cell's availability of NAPDH. Treatments included exposure to one of FA (10-0.01 μg/μl, provided by Professor Ben Boyd, Monash University, Australia), TA (10-0.01 μg/p, Honeywell, USA) and Dexamethasone (10-0.0001 μg/μl, Sigma-Aldrich, MO, USA). All corticosteroids used in vitro were dissolved in 20% dimethyl sulfoxide (DMSO) (Sigma-Aldrich, MO, USA) and ultrapure endotoxin 0.1M PBS (Thermo Fisher Scientific, MA, USA). At the 12-hour time point following addition of the corticosteroid, 10p of MTT reagent (Roche, Switzerland) was added to each well. To protect against light, plates were wrapped in foil and stored in the dark at 37° C. for 4 hours at 5.0% CO2. Cells were monitored using a bright field Zeiss Axiovert 200 inverted microscope (Carl Zeiss Meditec, Dublin, CA. USA) for formation of insoluble purple formazan precipitate crystals in viable cells. Subsequently 100p of MTT solubilisation solution was added and once again incubated in darkness at 37° C., 5.0% CO2 for 24 hours. Quantification of the MTT assay was performed by measuring the absorbance at 570 nm using Tecan Infinite® 200 PRO (Tecan, Mannedorf, Switzerland).

[3] = tested on: C57BL/6J mice, photo-oxidative damage (PD); test: Photo-oxidative damage (PD) model of retinal degeneration, intravitreal injection; format: in vivo, mouse
Description: All experiments conducted were in accordance with the ARVO Statement for Use of Animals in Ophthalmic and Vision Research, and with approval from the ANU Animal Experimentation Ethics Committee (AEEC, protocol #A2014/56). C57BL/6J mice aged 60 post-natal days were used in this study. Animals were born, reared and held under dim light conditions (5 lux) prior to photo-oxidative damage.
In vivo cross-sectional and fundus images of the mouse retina were acquired using Optical Coherence Tomography (OCT).
Intravitreal injections were performed on C57BL/6J mice aged 60 post-natal days. Treatments included exposure to FA or TA dissolved in Suspension (comprised of 0.5% w/v carboxymethyl cellulose and 0.4% v/v Tween 80). The final concentration of drug in the vitreous chamber is estimated to be as 1 mg/ml.
Age-matched C57BL/6J mice (60 post-natal days) were exposed to continuous 100K lux white LED light for 5 days with access to food and water ad libitum. During this time, 1% atropine sulphate (Minims 1% atropine sulphate eye drops; Bausch and Lomb, USA) was administered to both eyes twice daily to dilate the pupils. Animals were subsequently euthanised with carbon dioxide (CO2).
Electroretinography (ERG) was used to assess the retinal function response of rodents to full-field flash stimuli under scotopic conditions. Dim-reared control and photo-oxidative damaged animals were used, using known methods.
Animals were dark-adapted overnight before the commencement of ERG experiments. Animals were anaesthetised as previously described, and all retinal recordings were undertaken in a dark room with minimal red light source.
Terminal deoxynucleotidyl transferase (Tdt) dUTP nick end labelling (TUNEL) is an established technique used to detect apoptotic and necrotic cells.
The retina was evenly divided into 8 quadrants. Each quadrant was viewed using a confocal microscope (LSM 5, Zeiss, Germany) and TUNEL^+ and IBA1^+ cells were identified and counted. Data were graphed and analysed using Prism 6 software (GraphPad Software, CA, USA).

[4] = tested on: MIO-M1 cells; test: MTT assay, cell viability of MIO-M1 cells; format: cell-based, human
Description: as §1, §2

[5] = tested on: 661W cells; test: MTT assay, cell viability of 661W cells; format: cell-based, human
Description: as §1, §2

[6] = 10-0.01 μg/μl, 12 h, compared to DMSO-only group
[7] = 10 ug/uL, compared to DMSO-only group

Q: `C[C@]12CC[C@@H]3c4ccc(O)cc4C[C@@H](CCCCCCCCC[S+]([O-])CCCC(F)(F)C(F)(F)F)[C@H]3[C@@H]1CC[C@@H]2O` (some centres unmarked) [ICI182780] was tested. Which “effect of receptor antagonist on FA-mediated suppression of Ccl2, Il-6, and Il-8” value (shortened to “effect of receptor antagonist”) [1] did it give?
A: Its value is “did not alter”.

Q: For `N#Cc1ccc([C@H]2CCCC[C@H]2O)cc1C(F)(F)F` [PF998425], which “effect of receptor antagonist” value [1] is on record?
A: The value was “did not alter”.

Q: Which “effect of receptor antagonist” value [1] does the source give for `CC#C[C@]1(O)CC[C@H]2[C@@H]3CCC4=CC(=O)CCC4=C3[C@@H](c3ccc(N(C)C)cc3)C[C@@]21C` [RU486, Mifepristone] here?
A: The value was “negated; also recorded: completely abrogate”.

Q: `CCC[C@@H]1CC2=CC(=O)CC[C@]2(C)[C@H]2CC[C@@]3(C)[C@@H](CC[C@@]3(O)CCC(=O)[O-])[C@H]12.[K+]` [RU28318] was tested. Which “effect of receptor antagonist” value [1] did it give?
A: The value was “did not significantly alter”.

Q: Which “viability of ARPE19 cells at 1 μg/μl” value ([2]; 1 μg/μl) does the source give for `CC1(C)O[C@@H]2C[C@H]3[C@@H]4CCC5=CC(=O)C=C[C@]5(C)[C@@]4(F)[C@@H](O)C[C@]3(C)[C@]2(C(=O)CO)O1` [TA, triamcinolone acetonide] here?
A: Its value is “does not significantly alter cell viability”.

Q: And the “viability of ARPE-19 cells (MTT assay)” value [2, 6]?
A: Its value is “do not induce toxicity; also recorded: did not have significant effect”.

Q: And the “a-wave and b-wave ERG responses” value ([3]; 5 days PD, intravitreal, scotopic, versus controls)?
A: Its value is “indistinguishable from PD controls/untreated animals”.

Q: And the “photoreceptor survival in PD” value ([3]; intravitreal injection, mice)?
A: Its value is “no significant effect”.

Q: What about the “viability of MIO-M1 cells at 1 μg/μl” value ([4]; 1 μg/μl) of the same compound?
A: The value was “does not significantly alter cell viability”.

Q: And the “viability of MIO-M1 cells at the highest concentration” value [4, 7]?
A: Its value is “slight reduction”.

Q: What about the “viability of MIO-M1 cells (MTT assay)” value [4, 6] of the same compound?
A: Its value is “do not induce toxicity; also recorded: did not have significant effect”.

Q: And the “viability of 661W cells at 1 μg/μl” value ([5]; 1 μg/μl)?
A: The value was “does not significantly alter cell viability”.

Q: What about the “viability of 661W cells at the highest concentration” value [5, 7] of the same compound?
A: Its value is “slight reduction”.

Q: What about the “viability of 661W cells (MTT assay)” value [5, 6] of the same compound?
A: Its value is “do not induce toxicity; also recorded: did not have significant effect”.
